# Test results taken from patent US10301280B2 (Plexxikon Inc., priority 2012, dated 2019).
# Target: c-kit mutant D816V (Homo sapiens (Human), UniProt P10721, D816V/DEL694-753)
# Test: c-Kit mutant D816V biochemical assay (AlphaScreen)
# Settings: c-kit D816V biochemical inhibitory activity
# Method in brief: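 His-tagged c-Kit D816V kinase domain (551-934, Δ694-753, E. coli) phosphorylating 30 nM biotin-(E4Y)10 at 10 μM ATP in HEPES pH 7.2 with Mg/Mn, 5% DMSO, 30 min at room temperature. PY20-acceptor/streptavidin-donor AlphaScreen detection after EDTA stop. IC50 from 8-point 1:3 titration.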
# Sequence of c-kit mutant D816V (P10721 other isoform, or with tags, fused parts or gaps D816V/del 694-753): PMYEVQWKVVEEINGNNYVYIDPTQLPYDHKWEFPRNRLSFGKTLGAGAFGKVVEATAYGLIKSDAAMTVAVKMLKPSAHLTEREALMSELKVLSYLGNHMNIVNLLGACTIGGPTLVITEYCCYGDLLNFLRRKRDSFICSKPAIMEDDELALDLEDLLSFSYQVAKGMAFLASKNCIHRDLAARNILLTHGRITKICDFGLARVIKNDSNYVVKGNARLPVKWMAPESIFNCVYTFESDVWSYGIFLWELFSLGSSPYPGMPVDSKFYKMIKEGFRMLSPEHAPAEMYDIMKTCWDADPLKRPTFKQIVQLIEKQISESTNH
row,Structure (SMILES),IC50
1,"Cc1n[nH]c(C(=O)Nc2cnc3[nH]c(-c4ccnc5c4OCCO5)cc3c2)c1C [P-2179, N-[2-(2,3-dihydro-[1,4]dioxino[2,3-b]pyridin-8-yl)-1H-pyrrolo[2,3-b]pyridin-5-yl]-3,4-dimethyl-H-pyrazole-5-carboxamide]",0.0001 to 1 µM
2,"Cc1noc(C)c1C(=O)Nc1cnc2[nH]c(-c3ccccc3)cc2c1 [P-2013, 3,5-dimethyl-N-(2-phenyl-1H-pyrrolo[2,3-b]pyridin-5-yl)isoxazole-4-carboxamide]",10 to 200 µM
3,"Cc1cc(C(=O)Nc2cnc3[nH]c(N4CCOCC4)cc3c2)[nH]n1 [P-2058, 3-methyl-N-(2-morpholino-1H-pyrrolo[2,3-b]pyridin-5-yl)-1H-pyrazole-5-carboxamide]",0.0001 to 1 µM
4,"Cc1n[nH]c(C(=O)Nc2cnc3[nH]c(C4=CCN(C(=O)N5CCOCC5)CC4)cc3c2)c1Cl [P-2036, 4-chloro-3-methyl-N-[2-[1-(morpholine-4-carbonyl)-3,6-dihydro-2H-pyridin-4-yl]-1H-pyrrolo[2,3-b]pyridin-5-yl]-1H-pyrazole-5-carboxamide]",0.0001 to 1 µM
5,"O=C(Nc1cnc2[nH]c(-c3ccccc3)cc2c1)c1cccc2n[nH]cc12 [P-2289, N-(2-phenyl-1H-pyrrolo[2,3-b]pyridin-5-yl)-2H-indazole-4-carboxamide]",1 to 10 µM
6,"Cc1cc(C(=O)Nc2cnc3[nH]c(C4=CCN(C(=O)C5CC5)CC4)cc3c2)n[nH]1 [P-2042, N-[2-[1-(cyclopropanecarbonyl)-3,6-dihydro-2H-pyridin-4-yl]-1H-pyrrolo[2,3-b]pyridin-5-yl]-5-methyl-1H-pyrazole-3-carboxamide]",0.0001 to 1 µM
7,"Cc1n[nH]c(C(=O)Nc2cnc3[nH]c(-c4cccc(N5CCNCC5)c4)cc3c2)c1C [P-2274, 3,4-dimethyl-N-[2-(3-piperazin-1-ylphenyl)-1H-pyrrolo[2,3-b]pyridin-5-yl]-1H-pyrazole-5-carboxamide]",0.0001 to 1 µM
8,"Cc1n[nH]c(C(=O)Nc2cnc3[nH]c(-c4cnn(C5CCNCC5)c4)cc3c2)c1C [P-2048, 3,4-dimethyl-N-[2-[1-(4-piperidyl)pyrazol-4-yl]-1H-pyrrolo[2,3-b]pyridin-5-yl]-1H-pyrazole-5-carboxamide]",0.0001 to 1 µM
9,"COc1cncc(-c2cc3cc(NC(=O)c4[nH]nc(C)c4C)cnc3[nH]2)c1 [P-2183, N-[2-(5-methoxy-3-pyridyl)-1H-pyrrolo[2,3-b]pyridin-5-yl]-3,4-dimethyl-1H-pyrazole-5-carboxamide]",0.0001 to 1 µM
10,"Cc1n[nH]c(C(=O)Nc2cnc3[nH]c(-c4cnccc4C(N)=O)cc3c2)c1C [P-2272, 3-[5-[(3,4-dimethyl-1H-pyrazole-5-carbonyl)amino]-1H-pyrrolo[2,3-b]pyridin-2-yl]pyridine-4-carboxamide]",0.0001 to 1 µM
11,"Cc1n[nH]nc1C(=O)Nc1cnc2[nH]c(-c3ccc(F)cc3)cc2c1 [P-2037, N-[2-(4-fluorophenyl)-1H-pyrrolo[2,3-b]pyridin-5-yl]-5-methyl-2H-triazole-4-carboxamide]",0.0001 to 1 µM
12,"Cc1n[nH]c(C(=O)Nc2cnc3[nH]c(-c4ccc(F)cc4OC(F)F)cc3c2)c1C [P-2268, N-[2-[2-(difluoromethoxy)-4-fluoro-phenyl]-1H-pyrrolo[2,3-b]pyridin-5-yl]-3,4-dimethyl-1H-pyrazole-5-carboxamide]",0.0001 to 1 µM
13,"Cc1n[nH]c(C(=O)Nc2cnc3[nH]c(-c4ccc(F)cc4)cc3c2)c1C [P-2024, N-[2-(4-fluorophenyl)-1H-pyrrolo[2,3-b]pyridin-5-yl]-3,4-dimethyl-1H-pyrazole-5-carboxamide]",0.0001 to 1 µM
14,"CCc1ccc(-c2cc3cc(NC(=O)c4[nH]nc(C)c4C)cnc3[nH]2)cn1 [P-2178, N-[2-(6-ethyl-3-pyridyl)-1H-pyrrolo[2,3-b]pyridin-5-yl]-3,4-dimethyl-1H-pyrazole-5-carboxamide]",0.0001 to 1 µM
15,"Cc1n[nH]c(C(=O)Nc2ccc(Nc3ccccc3)nc2)c1C [P-2045, N-(6-anilino-3-pyridyl)-3,4-dimethyl-1H-pyrazole-5-carboxamide]",0.0001 to 1 µM
16,"Cc1n[nH]c(C(=O)Nc2cnc3[nH]nc(C)c3c2)c1C [P-2040, 3,4-dimethyl-N-(3-methyl-1H-pyrazolo[3,4-b]pyridin-5-yl)-1H-pyrazole-5-carboxamide]",0.0001 to 1 µM
17,"CCn1nccc1S(=O)(=O)Nc1cnc2[nH]c(-c3ccc(F)cc3)cc2c1 [P-2030, 2-ethyl-N-[2-(4-fluorophenyl)-1H-pyrrolo[2,3-b]pyridin-5-yl]pyrazole-3-sulfonamide]",10 to 200 µM
18,"O=C(Nc1cnc2[nH]c(-c3ccc(F)cc3)cc2c1)c1n[nH]c2ccccc12 [P-2046, N-[2-(4-fluorophenyl)-1H-pyrrolo[2,3-b]pyridin-5-yl]-1H-indazole-3-carboxamide]",0.0001 to 1 µM

row,Structure (SMILES),IC50
1,"Cc1n[nH]c(C(=O)Nc2cnc3[nH]c(-c4ccc(C5(C(=O)O)CC5)cc4)cc3c2)c1C [P-2294, 1-[4-[5-[(3,4-dimethyl-1H-pyrazole-5-carbonyl)amino]-1H-pyrrolo[2,3-b]pyridin-2-yl]phenyl]cyclopropanecarboxylic acid]",0.0001 to 1 µM
2,"Cc1n[nH]c(C(=O)Nc2cnc3[nH]c(-c4ccc(C(=O)O)c(F)c4)cc3c2)c1C [P-2292, 4-[5-[(3,4-dimethyl-1H-pyrazole-5-carbonyl)amino]-1H-pyrrolo[2,3-b]pyridin-2-yl]-2-fluoro-benzoic acid]",0.0001 to 1 µM
3,"[2H]c1c([2H])c([2H])c(-c2cc3cc(NC(=O)c4[nH]nc(C)c4C)cnc3[nH]2)c([2H])c1[2H] [P-2164, 3,4-dimethyl-N-[2-(2,3,4,5,6-pentadeuteriophenyl)-1H-pyrrolo[2,3-b]pyridin-5-yl]-1H-pyrazole-5-carboxamide]",0.0001 to 1 µM
4,"Cc1cncc(-c2cc3cc(NC(=O)c4[nH]nc(C)c4C)cnc3[nH]2)c1 [P-2184, 3,4-dimethyl-N-[2-(5-methyl-3-pyridyl)-1H-pyrrolo[2,3-b]pyridin-5-yl]-1H-pyrazole-5-carboxamide]",0.0001 to 1 µM
5,"Cc1nn(C2CN(C(=O)OC(C)(C)C)C2)cc1-c1cc2cc(NC(=O)c3[nH]nc(C)c3C)cnc2[nH]1 [P-2285, tert-butyl 3-[4-[5-[(3,4-dimethyl-1H-pyrazole-5-carbonyl)amino]-1H-pyrrolo[2,3-b]pyridin-2-yl]-3-methyl-pyrazol-1-yl]azetidine-1-carboxylate]",0.0001 to 1 µM
6,"Cc1nn(C2COC2)cc1-c1cc2cc(NC(=O)c3[nH]nc(C)c3C)cnc2[nH]1 [P-2168, 3,4-dimethyl-N-[2-[3-methyl-1-(oxetan-3-yl)pyrazol-4-yl]-1H-pyrrolo[2,3-b]pyridin-5-yl]-1H-pyrazole-5-carboxamide]",0.0001 to 1 µM
7,"Cc1n[nH]c(C(=O)Nc2cnc(Nc3cccc(N4CCOCC4)c3)nc2)c1C [P-2051, 3,4-dimethyl-N-[2-(3-morpholinoanilino)pyrimidin-5-yl]-1H-pyrazole-5-carboxamide]",0.0001 to 1 µM
8,"Cc1n[nH]c(C(=O)Nc2cnc3[nH]c(-c4c(C)n[nH]c4C)cc3c2)c1C [P-2167, N-[2-(3,5-dimethyl-1H-pyrazol-4-yl)-1H-pyrrolo[2,3-b]pyridin-5-yl]-3,4-dimethyl-1H-pyrazole-5-carboxamide]",0.0001 to 1 µM
9,"Cc1n[nH]c(C(=O)Nc2cnc3[nH]c(C4=CCN(C(=O)N5CCOCC5)CC4)cc3c2)c1C [P-2034, 3,4-dimethyl-N-[2-[1-(morpholine-4-carbonyl)-3,6-dihydro-2H-pyridin-4-yl]-1H-pyrrolo[2,3-b]pyridin-5-yl]-1H-pyrazole-5-carboxamide]",0.0001 to 1 µM
10,"Cc1nn(C2CNC2)cc1-c1cc2cc(NC(=O)c3[nH]nc(C)c3C)cnc2[nH]1 [P-2286, N-[2-[1-(azetidin-3-yl)-3-methyl-pyrazol-4-yl]-1H-pyrrolo[2,3-b]pyridin-5-yl]-3,4-dimethyl-1H-pyrazole-5-carboxamide]",0.0001 to 1 µM
11,"Cc1n[nH]c(C(=O)Nc2cnc3[nH]c(-c4ccnc(N5CCN(C(=O)CC#N)CC5)c4)cc3c2)c1C [P-2189, N-[2-[2-[4-(2-cyanoacetyl)piperazin-1-yl]-4-pyridyl]-1H-pyrrolo[2,3-b]pyridin-5-yl]-3,4-dimethyl-1H-pyrazole-5-carboxamide]",0.0001 to 1 µM
12,"Cc1n[nH]c(C(=O)Nc2cnc3[nH]c(-c4cccc5c4OCC5)cc3c2)c1C [P-2273, N-[2-(2,3-dihydrobenzofuran-7-yl)-1H-pyrrolo[2,3-b]pyridin-5-yl]-3,4-dimethyl-H-pyrazole-5-carboxamide]",0.0001 to 1 µM
13,"Cc1n[nH]c(C(=O)Nc2cnc3[nH]c(C4=CCN(S(C)(=O)=O)CC4)cc3c2)c1Cl [P-2057, 4-chloro-3-methyl-N-[2-(1-methylsulfonyl-3,6-dihydro-2H-pyridin-4-yl)-1H-pyrrolo[2,3-b]pyridin-5-yl]-1H-pyrazole-5-carboxamide]",0.0001 to 1 µM
14,"Cc1n[nH]c(C(=O)Nc2cnc3[nH]nc(-c4cccc(N5CCN(C(=O)OC(C)(C)C)CC5)c4)c3c2)c1C [P-2162, tert-butyl 4-[3-[5-[(3,4-dimethyl-1H-pyrazole-5-carbonyl)amino]-1H-pyrazolo[3,4-b]pyridin-3-yl]phenyl]piperazine-1-carboxylate]",1 to 10 µM
15,"Cc1n[nH]c(C(=O)Nc2cnc3[nH]c(-c4ccc(F)nc4F)cc3c2)c1C [P-2280, N-[2-(2,6-difluoro-3-pyridyl)-1H-pyrrolo[2,3-b]pyridin-5-yl]-3,4-dimethyl-1H-pyrazole-5-carboxamide]",0.0001 to 1 µM
16,"Cc1n[nH]c(C(=O)Nc2cnc(Nc3cccc(NS(=O)(=O)c4ccccc4)c3)nc2)c1C [P-2053, N-[2-[3-(benzenesulfonamido)anilino]pyrimidin-5-yl]-3,4-dimethyl-1H-pyrazole-5-carboxamide]",0.0001 to 1 µM
17,"Cc1n[nH]c(C(=O)Nc2cnc3[nH]c(-c4ccnc(C(C)C)c4)cc3c2)c1C [P-2163, N-[2-(2-isopropyl-4-pyridyl)-1H-pyrrolo[2,3-b]pyridin-5-yl]-3,4-dimethyl-1H-pyrazole-5-carboxamide]",0.0001 to 1 µM
18,"Cc1n[nH]c(C(=O)Nc2cnc3[nH]c(-c4cccc5c4OC(F)(F)O5)cc3c2)c1C [P-2281, N-[2-(2,2-difluoro-1,3-benzodioxol-4-yl)-1H-pyrrolo[2,3-b]pyridin-5-yl]-3,4-dimethyl-1H-pyrazole-5-carboxamide]",0.0001 to 1 µM
